Experimental data reported in patent publication US7387999B2, “Simmondsin for use as angiogenesis inhibitor” (priority 2002, dated 2008).
Where two headings read alike, the source gives them in different places. Values belong to the molecule of their own block, whether it stands above or below them.

Experiments:
[1] = tested on: chorion allantois membrane (CAM); assay: chorion allantois membrane (CAM) assay; assay type: in vivo, chicken; conditions: for effect on blood vessel growth in the CAM (in words): Experiment 1
Protocol: Fertilized chicken eggs are incubated during 4 days at 37° C. Subsequently, the egg shell is opened to disclose the CAM. In order to reduce the pressure on the CAM for improving its manipulating properties, 2 to 3 ml albumen is removed. The opening is closed using cellophane tape and the eggs are further incubated until day 9 for application of the liquid test compounds using different concentrations. Dulbecco's modified Eagle medium (DMEM) was used as a negative control, whereas Vascular Endothelial Growth factor (VEGF) was used as a positive control (stimulator of angiogenesis). A total polar extract from refined, de-oiled jojoba flour, dimethylsimmondsin purified from this extract and a commercially known angiogenesis inhibitor (Tangeritin) were compared in their angiogenesis-inhibiting activity towards VEGF stimulated angiogenesis in the CAM's. Each of these solubilized test compositions was pipetted on a sterile plastic disc (10 mm diameter) and dried under sterile conditions.
Each disc was treated with cortisone acetate (100 μg/50 μl) in order to avoid inflammatory reactions. After drying, the discs were placed on the CAM with the charged side facing the CAM. The control disc (DMEM) was placed at 1 cm of the disc containing the test component. The opening was sealed with cellophane tape and the eggs were further incubated. At day 11, the tape and discs were removed and 10% buffered formaline was sprayed over the CAM. Eggs were allowed to dry for 2 to 4 h at room T°. Then, the CAM was cut out of the egg and mounted on a glass slide. The vascular density index is measured according to Harris-Hooker et al. (1983; J. Cell. Physiol. 114:302-310); all micro vessels that cross 3 concentric circles with a diameter of 6, 8 and 10 mm were counted, as illustrated on FIG. 2.
The angiogenetic Index (AI) is expressed as {(t/c)×100}−100, whereby t=total number of crossing vessels where the disc containing the test component was located, and c=total number of crossing vessels where the control disc was located. […]

[2] = biological target: T1, human oestrogen receptor (Homo sapiens, UniProt P03372); assay: oestrogenic bioassay; assay type: cell-based; conditions: yeast with human oestrogen receptor; 1, 10, 100, 1000 μM; 3 days; compared to 17 beta-oestradiol standards, FIG. 11
T1 construct: expressed in transfected cells; host or cells: Saccharomyces cerevisiae (recombinant yeast)
T1 sequence (P03372 1-595): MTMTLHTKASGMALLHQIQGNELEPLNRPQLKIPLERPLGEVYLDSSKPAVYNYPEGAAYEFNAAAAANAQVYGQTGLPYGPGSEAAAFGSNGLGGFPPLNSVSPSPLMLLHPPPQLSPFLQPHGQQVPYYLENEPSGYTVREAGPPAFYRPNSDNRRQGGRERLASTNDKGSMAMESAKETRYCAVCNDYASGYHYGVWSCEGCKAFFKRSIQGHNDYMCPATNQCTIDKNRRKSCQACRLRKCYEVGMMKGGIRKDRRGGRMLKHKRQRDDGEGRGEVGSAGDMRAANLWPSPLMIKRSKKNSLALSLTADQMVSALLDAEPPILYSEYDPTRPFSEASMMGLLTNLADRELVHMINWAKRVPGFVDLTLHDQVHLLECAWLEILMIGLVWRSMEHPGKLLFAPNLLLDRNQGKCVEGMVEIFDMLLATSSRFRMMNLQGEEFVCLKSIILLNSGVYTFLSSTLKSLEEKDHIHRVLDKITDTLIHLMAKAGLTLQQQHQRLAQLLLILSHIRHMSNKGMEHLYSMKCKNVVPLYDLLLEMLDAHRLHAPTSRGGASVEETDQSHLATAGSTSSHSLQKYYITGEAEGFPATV
Protocol: In an experiment, yeast cells (Saccharomyces cerevisiae) containing a human oestrogen receptor (100 μl) was added to 25 ml growth medium. The growth medium comprised • D-glucose (2.5 ml from 20 g D-glucose in 80 ml water); • L-aspartic acid (0.625 ml from 400 mg in 100 ml water); • vitamin solution (0.250 ml from 8 mg thiamine, 8 mg pyridoxine, 8 mg panthotenic acid, 40 mg inositol and 20 ml biotin solution (2 mg in 100 ml water) in 180 ml water); • L-threonine (0.2 ml from 2.4 g in 100 ml water), copper(II)sulphate (0.0625 ml from 160 mg in 50 ml water); • minimal medium (22.5 ml from 1 l water composed of 13.61 g potassium dihydrogenphosphate, 1.98 g ammonium sulphate, 4.2 g potassium hydroxide, 1 ml iron(III)sulphate (40 mg in 50 ml water), 50 mg L-leucine, 50 mg L-histidine, 50 mg adenine, 20 mg L-arginine hydrochloride, 20 mg L-methionine, 30 mg L-tyrosine, 30 mg L-isoleucine, 30 mg L-lysine hydrochloride, 25 mg L-phenylalanine, 100 mg L-glutamic acid, 150 mg L-valine, 375 mg L-serine); and chlorophenol red beta-D-galactopyranoside (0.250 ml).
17 beta-oestradiol (20 μl aliquots from 0.008 nM to 100 nM, prepared from 10 mg in 10 ml ethanol) and test compounds, in concentrations of 1, 10, 100, 1000 μM, were pipetted into 96-well plates in a sterile flow hood. The solvent was left to evaporate for about 40 min.
The growth medium containing yeast was dispensed to all wells, except blank wells, in aliquots of 100 μl. The plates were incubated at 32° C. in a humidified atmosphere for 3 days, and then read at 540/360 nm by a microtiter plate reader (labsystems Muliskan Ascent Reader, Thermo labsystems, Vantaa, Finland).

[3] = tested on: angiogenesis; conditions: in vitro and in vivo assays
[4] = tested on: human microvascular endothelial cells (hMVEC); assay: in vitro angiogenesis assay: tube formation in 3-D fibrin matrices; assay type: cell-based; conditions: hMVEC on 3-D fibrin matrix, VEGF-A 25 ng/mL and TNFα 10 ng/mL, 7 days, FIG. 8
Protocol: Human fibrin matrices were prepared by the addition of 0.1 U/ml thrombin to a commercially obtained (Chromogenix AB, Mölndal, Sweden) mixture of 2 mg/ml fibrinogen (final concentrations), 2 mg/ml Na-citrate, 0.8 mg/ml NaCl, 3 μg/ml plasminogen in M199 medium and 2.5 U/ml factor XIII. 100 μl aliquots of this mixture were added to the wells of 96-well plates. After clotting at room temperature, the fibrin matrices were soaked with M199 supplemented with 10% HS and 10% NBCS for 2 h at 37° C. to inactivate the thrombin. […] Invading cells and the formation of tubular structures of hMVEC in the three-dimensional fibrin matrix were analysed by phase contrast microscopy. The total length of tube-like structures of four microscopic fields (7.3 mm^2/field) were (clockwise) measured using an Olympus CK2 microscope equipped with a monochrome CCD camera (MX5) connected to a computer with Optimas image analysis software, and expressed as mm/cm^2 (Koolwijk et al. J. Cell Biol. 1996, 132:1177-188).
HMVEC were cultured on top of a 3-D fibrin matrix in M199, 10% human serum, 10% NBCS supplemented with VEGF-A (25 ng/mL) and TNFα (10 ng/mL) in the presence or absence of the indicated concentrations (w/v) of the compositions A1, A2, A3, A4, A5, B4, B5 and B6. […] The data are expressed as the mean of two wells indicated by the error bars (FIG. 8 B).

oestrogen-like activity [2]: no significant oestrogen-like activity
Molecule: 4,5-dimethylsimmondsin [A4]
effect on blood vessel growth in the CAM (in words) [1]: significant angiogenesis inhibition comparable with tangeritin | angiogenesis-inhibiting activity in the CAM (in words) ([1]; Experiments 2 and 3, A4 in the same concentration as the total polar extract): lower than the total polar extract but nevertheless still significant

Molecule: 4,5-dimethylsimmondsin ferulate (cis/trans) [A5]
angiogenesis-inhibiting activity (overall conclusion) [3]: higher angiogenesis-inhibiting activity than the unsubstituted dimethylsimmondsin | angiogenesis-inhibiting activity (overall conclusion) ([3]; listed as dimethylsimmondsin ferulates): significant angiogenesis-inhibiting activity, which is higher than the activity of unsubstituted dimethylsimmondsin

oestrogen-like activity [2]: no significant oestrogen-like activity
Molecule: COC1CC(OC2OC(CO)C(O)C(O)C2O)C(=CC#N)C(O)C1O (stereo not shown) [4-desmethylsimmondsin]

oestrogen-like activity [2]: no significant oestrogen-like activity
Molecule: CO[C@H]1[C@@H](O)C[C@@H](O[C@@H]2O[C@H](CO)[C@@H](O)[C@H](O)[C@H]2O)/C(=C\C#N)[C@@H]1O [5-desmethylsimmondsin]

oestrogen-like activity [2]: no significant oestrogen-like activity
Molecule: N#CC=C1CC(O)C(O)C(O)C1O[C@@H]1O[C@H](CO)[C@@H](O)[C@H](O)[C@H]1O (stereo partly shown) [B5, 4,5-didesmethylsimmondsin]
inhibition of VEGF-induced in vitro tube formation [4]: highest biological activity

Molecule: COc1cc(C=CC(=O)OC2C(OC3CC(OC)C(OC)C(O)C3=CC#N)OC(CO)C(O)C2O)ccc1O (stereo not shown) [E simmondsin-2′-ferulate]
oestrogen-like activity [2]: no significant oestrogen-like activity

Molecule: COc1cc(/C=C\C(=O)O[C@@H]2[C@@H](O[C@@H]3C[C@H](OC)[C@H](OC)[C@@H](O)/C3=C/C#N)O[C@@H](CO)[C@H](O)[C@H]2O)ccc1O [Z simmondsin-2′-ferulate]
oestrogen-like activity [2]: no significant oestrogen-like activity

Molecule: VEGF [reference compound]
effect on blood vessel growth in the CAM (in words) [1]: significant blood vessel growth compared with the negative control group (DMEM)

Molecule: desmethylsimmondsin
inhibition of VEGF-induced in vitro tube formation [4]: highest biological activity
